According to patent US12508286B2, “Composition for treating spinal cord injury, comprising stem cells treated with novel compound” (YJ CERAPEUTICS INC., priority 2019, dated 2025):

System: MSCs
Assay: Stem cell differentiation confirmed with neural lineage markers
Type: cell-based
Details: MSCs cultured in a medium containing the compound for 5 days
Protocol: Referring to FIGS. 3 and 4, MSCs were cultured in a medium containing the compound for 5 days, and the differentiation status was confirmed using a neural lineage marker. As a result.
MSCs of passage 3 received from Kangstem Biotech were maintained in a KSB3 basal medium containing 10% FBS (Gibco) and supplements.
After passage 1, MSCs of passage 4 were stocked and stored in liquid nitrogen.
Referring to FIG. 1, MSCs of passage 5 were seeded at 1 mL per well in 12 wells diluted to 1.1×10^4/mL.
After 4 hours, the cells were treated with 40 μM of L1 or L3 or 30 μM of L2 (Formula 1).
After three days, the medium was changed with a new medium, and the cells were treated with the compound in the same manner and then additionally cultured for two days.

Which results are given for `CCc1ccc(N(C(=O)COC)c2nc3cc(Cl)ccc3o2)cc1` [L2, N-(5-Chlorobenzo[d]oxazol-2-yl)-N-(4-ethylphenyl)-2-methoxyacetamide]?
GFAP expression: hardly expressed; Nestin expression: hardly expressed; Tuj1-positive cells: ≥ 90%
